From patent US20080113974A1, “Heterocyclic Oxime Compounds, A Process For Their Preparation And Pharmaceutical Compositions Containing Them” (LES LABORATOIRES SERVIER, priority 2005, published 2008) come the findings set out here.

In this data set the test system is ob/ob mouse. The data set is described as follows: Antidiabetic and hypolipaemic effect in the ob/ob mouse. It counts as in vivo. The following applies: dose of 3 mg/kg; for variation in body weight: four days, body weight measured daily. As for the experimental part:
The 10-week-old female ob/ob mouse (Harlan) is used for the in vivo tests. The animals are kept in a light-darkness cycle of 12 hours at 25° C. The mouse has a basal hyperglycaemia of 2 g/l. The animals are randomly selected with regard to their glycaemia to form groups of six. […] […] The control groups receive the solvents under the same conditions as the treated groups.
The activity of the products is evaluated by measuring glycaemia, triglycerides and insulinaemia 24 hours after the final administration and by measuring body weight daily.

[1] abbreviates: twice per day for four days, 24 hours after the final administration.

Take `CCOC(Cc1ccc(OCCN2C(=O)COc3ccc(C(=NO)c4ccccc4)cc32)cc1)C(=O)O` (centres unmarked) [Example 11]: the “variation in body weight” value is listed as “insignificant variation”. Besides, under setting [1], the reduction in glycaemia came to 25%, the reduction in insulinaemia amounted to 22% and the reduction in triglycerides worked out at 45%.

Regarding `CN(CCOc1ccc(CC2SC(=O)NC2=O)cc1)c1ccccn1` (centres unmarked) [rosiglitazone, reference compound], the “variation in body weight” value is listed as “significant increase”.
